Several values for one entry are separate records, joined by “and”; a condition that tells them apart may be missing. Equal entries are not always repeated. Where two headings read alike, the source gives them in different places.
How the values were obtained:
[1] = Cellular and nuclear receptor functional assays; format: cell-based; settings: human recombinant (CHO cells); for Kb: apparent dissociation constant, modified Cheng Prusoff equation, read-out: kB, 5-HT2B(h) (antagonist effect); for IC50: serotonin (30 nM), IP1, HTRF, read-out: IC50, 5-HT2B(h) (antagonist effect)
Method: A study was conducted to test 5 compounds in cellular and nuclear receptor functional and enzyme and uptake assays.
The results are expressed as a percent of control agonist response or inverse agonist response and as a percent inhibition of control agonist response
The EC50 values (concentration producing a half-maximal response) and IC50 values (concentration causing a half-maximal inhibition of the control agonist response) were determined by non-linear regression analysis of the concentration-response curves generated with mean replicate values using Hill equation curve fitting […]
where Y=response, A=left asymptote of the curve, D=right asymptote of the curve, C=compound concentration, and C50=EC50 or IC50, and nH=slope factor. This analysis was performed using software developed at Cerep (Hill software) and validated by comparison with data generated by the commercial software SigmaPlot® 4.0 for Windows® (© 1997 by SPSS Inc.).
For the antagonists, the apparent dissociation constants (KB) were calculated using the modified Cheng Prusoff equation where A=concentration of reference agonist in the assay, and EC50A=EC50 value of the reference agonist.
In Vitro Pharmacology. Results showing an inhibition (or stimulation for assays run in basal conditions) higher than 50% were considered to represent significant effects of the test compounds. Results showing an inhibition (or stimulation) between 25% and 50% are indicative of weak to moderate effects. Results showing an inhibition (or stimulation) lower than 25% were not considered significant and mostly attributable to variability of the signal around the control level.

[2] = Metabolic stability in rat liver S9; format: in vitro ADME, Sprague Dawley rat; set-up: half-life: dose or concentration left out as unconfirmed; settings: for half-life: Sprague Dawley (rat), rat, dog and human liver S9 incubations (summary over species), read-out: half-lives; for half-life / half-life at 1 μM / microsomal CLint at 1 μM: pH 7.2
Method: (§1) Incubation Buffer (PBK): 50 mM potassium phosphate buffer was prepared from 1 M potassium phosphate buffer, pH 7.2. […] The dilution of […] was prepared by 90% methanol/10% DMSO, then 10 μM working solutions were prepared by diluting the 0.1 mM intermediates with 50 mM PBK. […] Prior to use, the stock solutions were brought to room temperature and thoroughly mixed. […] Cofactors Solutions: the mixture of cofactors solution was made at 10 mM of NADPH and 10 mM of UDPGA in PBK buffer.
(§2) The incubation was carried out in 96-well plates. The liver S9 working solutions were added to 96-well plates (80 μL/well) in duplicate. […] Reaction was initiated by adding cofactor mixture 10 μL/well. The plates were incubated at 37° C. in a water bath with shaking. […] The final organic solvent content in the incubation was ≤1%.
(§3) At specified time points, i.e., 5, 10, 20, 30 and 60 minutes, NCF60 (without adding NADPH (Nicotinamide-adenine dinucleotide phosphate, reduced form) and UDPGA (Uridine 5′-diphosphoglucuronic acid trisodium salt) replaced with PBK buffer reaction was stopped by adding three volumes of stop solution. The time zero (To) samples were prepared by adding three volumes of stop solution to liver S9 samples, followed by addition of test article or control, and cofactor mixture solution 10 μL/well.
(§4) Subsequently, 100 μL of supernatant.
(§5) Positive controls: 7-ethoxycoumarin and 7-hydroxycoumarin.

hNav1.5 = target: T1, hNav1.5 (Homo sapiens, UniProt Q14524); experiment: Nav1.5 human sodium ion channel cell based automated patch clamp assay (QPatch HT); settings: Antagonist
T1 construct: CYL6004QP2DR
T1 sequence (Q14524 whole entry): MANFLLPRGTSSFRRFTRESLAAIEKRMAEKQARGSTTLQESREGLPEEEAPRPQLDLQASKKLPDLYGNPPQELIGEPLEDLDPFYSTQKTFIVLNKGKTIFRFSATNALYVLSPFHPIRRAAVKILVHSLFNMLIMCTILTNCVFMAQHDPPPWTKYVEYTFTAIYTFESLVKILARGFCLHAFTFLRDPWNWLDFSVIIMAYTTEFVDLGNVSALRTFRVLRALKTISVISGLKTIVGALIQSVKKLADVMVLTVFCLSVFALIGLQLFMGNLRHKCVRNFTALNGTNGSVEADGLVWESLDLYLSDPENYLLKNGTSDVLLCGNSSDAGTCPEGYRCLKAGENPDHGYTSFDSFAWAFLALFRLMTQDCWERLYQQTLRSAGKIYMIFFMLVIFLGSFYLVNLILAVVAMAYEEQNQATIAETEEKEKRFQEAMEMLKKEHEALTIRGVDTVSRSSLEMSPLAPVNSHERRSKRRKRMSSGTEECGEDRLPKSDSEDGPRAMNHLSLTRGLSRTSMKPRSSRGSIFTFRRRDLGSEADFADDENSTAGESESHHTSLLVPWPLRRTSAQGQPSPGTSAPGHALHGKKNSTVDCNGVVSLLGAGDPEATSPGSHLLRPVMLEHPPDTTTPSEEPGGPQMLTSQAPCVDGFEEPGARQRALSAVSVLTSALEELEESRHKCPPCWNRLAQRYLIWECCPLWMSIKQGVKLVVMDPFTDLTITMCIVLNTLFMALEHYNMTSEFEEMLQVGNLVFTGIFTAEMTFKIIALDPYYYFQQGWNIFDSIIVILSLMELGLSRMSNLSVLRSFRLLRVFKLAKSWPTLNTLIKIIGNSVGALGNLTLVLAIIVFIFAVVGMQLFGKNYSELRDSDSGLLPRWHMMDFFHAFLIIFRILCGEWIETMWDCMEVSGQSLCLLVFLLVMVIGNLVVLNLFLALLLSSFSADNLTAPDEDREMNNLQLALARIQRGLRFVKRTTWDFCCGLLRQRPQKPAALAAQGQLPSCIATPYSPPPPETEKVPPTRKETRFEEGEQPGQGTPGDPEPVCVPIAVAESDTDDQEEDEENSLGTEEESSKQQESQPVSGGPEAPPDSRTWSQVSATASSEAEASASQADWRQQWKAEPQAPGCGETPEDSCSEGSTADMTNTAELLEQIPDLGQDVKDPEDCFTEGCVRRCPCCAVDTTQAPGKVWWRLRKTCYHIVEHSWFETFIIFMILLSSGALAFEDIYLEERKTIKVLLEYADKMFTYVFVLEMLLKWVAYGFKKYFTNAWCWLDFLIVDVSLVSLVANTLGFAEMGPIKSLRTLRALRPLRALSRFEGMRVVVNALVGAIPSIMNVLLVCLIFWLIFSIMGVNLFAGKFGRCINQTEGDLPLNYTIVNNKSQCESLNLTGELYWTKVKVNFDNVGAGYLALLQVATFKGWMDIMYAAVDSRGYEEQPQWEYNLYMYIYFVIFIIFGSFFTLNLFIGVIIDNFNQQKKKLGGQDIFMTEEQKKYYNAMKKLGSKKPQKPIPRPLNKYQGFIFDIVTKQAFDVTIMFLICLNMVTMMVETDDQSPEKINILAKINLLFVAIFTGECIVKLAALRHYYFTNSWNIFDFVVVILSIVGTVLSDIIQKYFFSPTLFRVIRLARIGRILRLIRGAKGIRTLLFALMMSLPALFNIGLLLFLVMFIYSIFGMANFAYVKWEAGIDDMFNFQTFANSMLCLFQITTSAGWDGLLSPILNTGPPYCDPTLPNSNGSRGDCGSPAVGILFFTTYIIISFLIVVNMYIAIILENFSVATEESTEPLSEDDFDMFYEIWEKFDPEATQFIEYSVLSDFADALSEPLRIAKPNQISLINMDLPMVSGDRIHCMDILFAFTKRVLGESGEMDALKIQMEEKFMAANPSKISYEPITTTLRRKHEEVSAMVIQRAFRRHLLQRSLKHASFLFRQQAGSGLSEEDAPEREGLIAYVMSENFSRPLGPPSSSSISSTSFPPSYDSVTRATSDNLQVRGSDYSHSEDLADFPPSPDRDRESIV
Method: Electrophysiological assays were conducted to profile five compounds for activities on the ion channel target using the QPatch HT electrophysiological platform.
CYL6004QP2DR Nav1.5 Human Sodium Ion Channel Cell Based Automated Patch Clamp Assay. Cells were held at −120 mV for 100 ms, stepped to −130 mV for 100 ms, and stepped back to −120 mV for 100 ms to measure the leak current. Na channels exist in a) resting or closed state at −120 mV, b) a transient open state that inactivates to c) inactivated state at −10 mV. Na current inhibition within 1-2 ms of channel opening at −10 mV is open channel inhibition (pulse 1). […] Pulse 1 and 2 are used to investigate drug binding to the open state and inactivated state of the Na channels, respectively. Each concentration of compound was applied for 5 minutes.
Current amplitudes more than 200 pA at the control stage were analyzed. The amplitude of the current was calculated by measuring the difference between the peak inward current on stepping to −10 mV (i.e. peak of the current) and remaining current at the end of the step. The current was assessed in vehicle control conditions and then at the end of each five (5) minute compound application.

[3] = Metabolic stability in human liver S9; format: in vitro ADME; settings: for half-life at 1 μM / microsomal CLint at 1 μM: pH 7.2
Method: as §1, §2, §3, §4, §5

[4] = Sprague Dawley, rat liver S9, 1 μM
[5] = Sprague Dawley, rat liver S9, 1 μM, read-out: CLint(LS9)
[6] = rat liver S9, 1 μM, NCF60 (no cofactors, 60 min)
[7] = Pulse 1 (open state), read-out: Estimated IC50 (Pulse 1)
[8] = Pulse 2 (inactivated state), read-out: Estimated IC50 (Pulse 2)
[9] = human liver S9, 1 μM, NCF60 (no cofactors, 60 min)
[10] = human liver S9, 1 μM, read-out: CLint(LS9)
[11] = 1 μM in SD Rat liver S9 fractions
[12] = Sprague-Dawley, 1 μM in SD Rat liver S9 fractions
[13] = Sprague-Dawley, 1 μM in SD Rat liver S9 fractions, read-out: CLint(mic.)
[14] = 1 μM in Human liver S9 fractions
[15] = 1 μM in Human liver S9 fractions, read-out: CLint(mic.)

Row | Compound | Kb [1] [µM] | IC50 [1] [µM] | half-life [2] [min] | half-life at 1 μM [2, 4] [min] | microsomal CLint at 1 μM [2, 5] [µL/min/mg] | % Remaining ([2]; rat liver S9, 1 μM, 0 min) [%] | Analyte Peak area/IS Peak area Mean × 100 (n = 2) ([2]; rat liver S9, 1 μM, 0 min) | % Remaining ([2]; rat liver S9, 1 μM, 5 min) [%] | Analyte Peak area/IS Peak area Mean × 100 (n = 2) ([2]; rat liver S9, 1 μM, 5 min) | % Remaining ([2]; rat liver S9, 1 μM, 10 min) [%] | Analyte Peak area/IS Peak area Mean × 100 (n = 2) ([2]; rat liver S9, 1 μM, 10 min) | % Remaining ([2]; rat liver S9, 1 μM, 20 min) [%] | Analyte Peak area/IS Peak area Mean × 100 (n = 2) ([2]; rat liver S9, 1 μM, 20 min) | % Remaining ([2]; rat liver S9, 1 μM, 30 min) [%] | Analyte Peak area/IS Peak area Mean × 100 (n = 2) ([2]; rat liver S9, 1 μM, 30 min) | % Remaining ([2]; rat liver S9, 1 μM, 60 min) | Analyte Peak area/IS Peak area Mean × 100 (n = 2) ([2]; rat liver S9, 1 μM, 60 min) | % Remaining [2, 6] [%] | IC50 (hNav1.5; [7]) [µM] | IC50 (hNav1.5; [8]) [µM] | further results
1 | CCOc1ccccc1OC[C@@H]1CN(C(=O)OC(C)OC(=O)[C@@H](N)C(C)C)CCO1 (some centres unmarked) [COMPOUND A] | 1 | 6.9 | 4 to 12 | 8.61 | 161 | 100 | 10.7 | 6.3 | 0.669 | 5.4 | 0.574 | 3.4 | 0.362 | 1.6 | 0.171 | 0.25% | 0.026 | 2.2 | > 100 | 19.6 | Analyte Peak area/IS Peak area Mean × 100 (n = 2) [2, 6]: 0.237; % Remaining ([3]; human liver S9, 1 μM, 0 min): 100%; Analyte Peak area/IS Peak area Mean × 100 (n = 2) ([3]; human liver S9, 1 μM, 0 min): 11.7; % Remaining ([3]; human liver S9, 1 μM, 5 min): 1.4%; Analyte Peak area/IS Peak area Mean × 100 (n = 2) ([3]; human liver S9, 1 μM, 5 min): 0.164; % Remaining ([3]; human liver S9, 1 μM, 10 min): 1.2%; Analyte Peak area/IS Peak area Mean × 100 (n = 2) ([3]; human liver S9, 1 μM, 10 min): 0.143; % Remaining ([3]; human liver S9, 1 μM, 20 min): 0.3%; Analyte Peak area/IS Peak area Mean × 100 (n = 2) ([3]; human liver S9, 1 μM, 20 min): 0.039; % Remaining ([3]; human liver S9, 1 μM, 30 min): 0.2%; Analyte Peak area/IS Peak area Mean × 100 (n = 2) ([3]; human liver S9, 1 μM, 30 min): 0.021; % Remaining ([3]; human liver S9, 1 μM, 60 min): 0.01% and 0.0%; Analyte Peak area/IS Peak area Mean × 100 (n = 2) ([3]; human liver S9, 1 μM, 60 min): 0.001; % Remaining [3, 9]: 0.1%; Analyte Peak area/IS Peak area Mean × 100 (n = 2) [3, 9]: 0.008; half-life at 1 μM ([3]; human liver S9, 1 μM): 5.76 min; microsomal CLint at 1 μM [3, 10]: 241 µL/min/mg
2 | CCOc1ccccc1OC[C@@H]1CN(C(=O)OC(OC(=O)[C@@H](N)C(C)C)C(C)C)CCO1 (some centres unmarked) [COMPOUND B] | 2.1 | 14 | 4 to 12 | 4.09 | 339 | 100 | 7.71 | 6.8 | 0.524 | 4.6 | 0.351 | 2.3 | 0.174 | 0.2 | 0.019 | 0.08% and 0.1% | 0.006 | 0.4 | > 100 | 7.6 | Analyte Peak area/IS Peak area Mean × 100 (n = 2) [2, 6]: 0.029; % Remaining ([3]; human liver S9, 1 μM, 0 min): 100%; Analyte Peak area/IS Peak area Mean × 100 (n = 2) ([3]; human liver S9, 1 μM, 0 min): 8.22; % Remaining ([3]; human liver S9, 1 μM, 5 min): 14%; Analyte Peak area/IS Peak area Mean × 100 (n = 2) ([3]; human liver S9, 1 μM, 5 min): 1.12; % Remaining ([3]; human liver S9, 1 μM, 10 min): 12%; Analyte Peak area/IS Peak area Mean × 100 (n = 2) ([3]; human liver S9, 1 μM, 10 min): 0.973; % Remaining ([3]; human liver S9, 1 μM, 20 min): 4.2%; Analyte Peak area/IS Peak area Mean × 100 (n = 2) ([3]; human liver S9, 1 μM, 20 min): 0.342; % Remaining ([3]; human liver S9, 1 μM, 30 min): 1.6%; Analyte Peak area/IS Peak area Mean × 100 (n = 2) ([3]; human liver S9, 1 μM, 30 min): 0.131; % Remaining ([3]; human liver S9, 1 μM, 60 min): 0.24% and 0.2%; Analyte Peak area/IS Peak area Mean × 100 (n = 2) ([3]; human liver S9, 1 μM, 60 min): 0.020; % Remaining [3, 9]: 1.2%; Analyte Peak area/IS Peak area Mean × 100 (n = 2) [3, 9]: 0.099; half-life at 1 μM ([3]; human liver S9, 1 μM): 7.74 min; microsomal CLint at 1 μM [3, 10]: 179 µL/min/mg
3 | CCOc1ccccc1OC[C@@H]1CN(C(=O)OC(OC(=O)[C@H](N)C(C)C)C(C)C)CCO1 (some centres unmarked) [COMPOUND C] | 2 | 13 | 4 to 12 | 8.53 | 163 | 100 | 6.55 | 19 | 1.24 | 13 | 0.834 | 5.6 | 0.365 | 3.5 | 0.228 | 0.39% and 0.4% | 0.026 | 3.5 | > 100 | 8.5 | Analyte Peak area/IS Peak area Mean × 100 (n = 2) [2, 6]: 0.228; % Remaining ([3]; human liver S9, 1 μM, 0 min): 100%; Analyte Peak area/IS Peak area Mean × 100 (n = 2) ([3]; human liver S9, 1 μM, 0 min): 10.6; % Remaining ([3]; human liver S9, 1 μM, 5 min): 7.7%; Analyte Peak area/IS Peak area Mean × 100 (n = 2) ([3]; human liver S9, 1 μM, 5 min): 0.808; % Remaining ([3]; human liver S9, 1 μM, 10 min): 4.2%; Analyte Peak area/IS Peak area Mean × 100 (n = 2) ([3]; human liver S9, 1 μM, 10 min): 0.446; % Remaining ([3]; human liver S9, 1 μM, 20 min): 2.8%; Analyte Peak area/IS Peak area Mean × 100 (n = 2) ([3]; human liver S9, 1 μM, 20 min): 0.297; % Remaining ([3]; human liver S9, 1 μM, 30 min): 1.5%; Analyte Peak area/IS Peak area Mean × 100 (n = 2) ([3]; human liver S9, 1 μM, 30 min): 0.160; % Remaining ([3]; human liver S9, 1 μM, 60 min): 0.19% and 0.2%; Analyte Peak area/IS Peak area Mean × 100 (n = 2) ([3]; human liver S9, 1 μM, 60 min): 0.020; % Remaining [3, 9]: 0.6%; Analyte Peak area/IS Peak area Mean × 100 (n = 2) [3, 9]: 0.061; half-life at 1 μM ([3]; human liver S9, 1 μM): 8.12 min; microsomal CLint at 1 μM [3, 10]: 171 µL/min/mg
4 | CCOc1ccccc1OCC1CN(C(=O)OC(C)OC(=O)[C@H](N)C(C)C)CCO1 (some centres unmarked) [COMPOUND D] | 0.75 | 4.9 | – | – | – | – | – | – | – | – | – | – | – | – | – | – | – | – | > 100 | 14.1 | % Remaining at 60 min [2, 11]: 0.48%; half-life at 1 μM [2, 12]: 9.4 min; microsomal CLint at 1 μM [2, 13]: 148 µL/min/mg; % Remaining at 60 min [3, 14]: 0.00%; half-life at 1 μM [3, 14]: 1.86 min; microsomal CLint at 1 μM [3, 15]: 746 µL/min/mg
5 | CCOc1ccccc1OCC1CN(C(=O)OC(OC(=O)[C@@H](N)C(C)C)C(C)C)CCO1 (some centres unmarked) [COMPOUND E] | 0.63 | 4.2 | – | – | – | – | – | – | – | – | – | – | – | – | – | – | – | – | 92.6 | 5.7 | % Remaining at 60 min [2, 11]: 0.00%; half-life at 1 μM [2, 12]: 4.8 min; microsomal CLint at 1 μM [2, 13]: 290 µL/min/mg; % Remaining at 60 min [3, 14]: 0.76%; half-life at 1 μM [3, 14]: 8.9 min; microsomal CLint at 1 μM [3, 15]: 155 µL/min/mg

Source: patent publication US20240343699A1, “DERIVATIVES OF SUBSTITUTED MORPHOLINES AND USES THEREOF” (Supernus Pharmaceuticals, Inc., priority 2023, published 2024)
